Reference: patent publication US20100137449A1, “SUBSTITUTED 1,3-CYCLOPENTADIONE MULTI-TARGET PROTEIN KINASE MODULATORS OF CANCER, ANGIOGENESIS AND THE INFLAMMATORY PATHWAYS ASSOCIATED THEREWITH” (METAPROTEOMICS, LLC, priority 2007, published 2010)

Legend:
Assay in all cases: KinaseProfiler Assay
[1] = biological target: ALK(h) (Homo sapiens, UniProt Q9UM73)
[2] = biological target: T1, Bmx(h) (Homo sapiens, UniProt P51813)
T1 sequence (P51813 1-675): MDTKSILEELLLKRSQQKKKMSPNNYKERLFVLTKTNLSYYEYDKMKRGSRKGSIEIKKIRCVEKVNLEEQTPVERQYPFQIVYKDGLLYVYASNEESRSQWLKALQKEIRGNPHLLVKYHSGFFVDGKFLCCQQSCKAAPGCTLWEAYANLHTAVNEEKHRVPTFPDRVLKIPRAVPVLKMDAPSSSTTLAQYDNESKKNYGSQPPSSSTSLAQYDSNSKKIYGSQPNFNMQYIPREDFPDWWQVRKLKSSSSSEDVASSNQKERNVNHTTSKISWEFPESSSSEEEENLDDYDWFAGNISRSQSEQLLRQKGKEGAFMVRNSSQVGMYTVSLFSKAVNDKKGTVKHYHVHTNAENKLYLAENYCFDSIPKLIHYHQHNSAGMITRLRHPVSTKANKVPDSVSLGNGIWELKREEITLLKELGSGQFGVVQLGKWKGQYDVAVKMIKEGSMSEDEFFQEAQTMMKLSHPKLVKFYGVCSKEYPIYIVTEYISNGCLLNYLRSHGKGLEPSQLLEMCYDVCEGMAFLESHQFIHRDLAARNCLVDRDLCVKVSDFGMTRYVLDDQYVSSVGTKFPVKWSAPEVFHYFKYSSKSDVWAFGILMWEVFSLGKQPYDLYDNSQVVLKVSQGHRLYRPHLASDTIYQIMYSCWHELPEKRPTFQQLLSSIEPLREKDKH

[3] = biological target: T2, DRAK1(h) (Homo sapiens, UniProt Q9UEE5)
T2 sequence (Q9UEE5 1-414): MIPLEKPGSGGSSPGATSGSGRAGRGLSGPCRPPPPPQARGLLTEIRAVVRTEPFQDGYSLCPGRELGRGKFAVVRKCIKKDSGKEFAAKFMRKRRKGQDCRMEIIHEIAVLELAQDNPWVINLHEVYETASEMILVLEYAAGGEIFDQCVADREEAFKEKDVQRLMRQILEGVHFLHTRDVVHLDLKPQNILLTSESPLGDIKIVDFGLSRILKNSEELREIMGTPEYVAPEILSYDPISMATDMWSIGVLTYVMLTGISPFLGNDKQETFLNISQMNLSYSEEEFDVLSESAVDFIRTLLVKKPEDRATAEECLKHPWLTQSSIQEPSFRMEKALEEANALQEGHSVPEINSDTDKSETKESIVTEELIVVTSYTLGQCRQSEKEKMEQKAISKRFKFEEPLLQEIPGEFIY

[4] = biological target: T3, Flt3(h) (Homo sapiens, UniProt P36888)
T3 sequence (P36888 27-993): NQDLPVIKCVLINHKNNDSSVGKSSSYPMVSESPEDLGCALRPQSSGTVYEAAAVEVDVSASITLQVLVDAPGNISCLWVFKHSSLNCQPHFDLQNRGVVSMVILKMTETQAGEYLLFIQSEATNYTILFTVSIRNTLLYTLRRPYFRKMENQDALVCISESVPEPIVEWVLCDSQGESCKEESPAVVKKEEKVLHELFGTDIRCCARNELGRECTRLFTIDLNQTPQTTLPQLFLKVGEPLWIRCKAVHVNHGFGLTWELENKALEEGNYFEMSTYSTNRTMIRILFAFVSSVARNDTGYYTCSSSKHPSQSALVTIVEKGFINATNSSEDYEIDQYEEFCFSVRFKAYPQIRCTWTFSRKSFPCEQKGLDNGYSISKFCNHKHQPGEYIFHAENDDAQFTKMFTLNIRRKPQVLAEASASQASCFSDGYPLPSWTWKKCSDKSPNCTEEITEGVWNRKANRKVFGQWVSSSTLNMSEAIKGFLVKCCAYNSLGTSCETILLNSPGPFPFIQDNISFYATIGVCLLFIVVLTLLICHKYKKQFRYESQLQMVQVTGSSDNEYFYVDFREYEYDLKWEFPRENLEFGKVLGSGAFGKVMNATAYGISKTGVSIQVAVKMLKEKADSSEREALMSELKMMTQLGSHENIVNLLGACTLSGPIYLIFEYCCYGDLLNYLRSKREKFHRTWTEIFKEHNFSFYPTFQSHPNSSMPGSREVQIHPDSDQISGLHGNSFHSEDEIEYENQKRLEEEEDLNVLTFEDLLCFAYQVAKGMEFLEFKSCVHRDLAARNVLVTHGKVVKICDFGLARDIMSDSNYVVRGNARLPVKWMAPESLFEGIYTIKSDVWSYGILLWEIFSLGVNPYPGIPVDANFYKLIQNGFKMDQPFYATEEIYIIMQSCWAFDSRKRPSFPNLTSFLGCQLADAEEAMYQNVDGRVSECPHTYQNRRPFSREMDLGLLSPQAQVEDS

[5] = biological target: Flt4(h) (Homo sapiens, UniProt P35916)
Chain of Flt4(h) (P35916 25-1363): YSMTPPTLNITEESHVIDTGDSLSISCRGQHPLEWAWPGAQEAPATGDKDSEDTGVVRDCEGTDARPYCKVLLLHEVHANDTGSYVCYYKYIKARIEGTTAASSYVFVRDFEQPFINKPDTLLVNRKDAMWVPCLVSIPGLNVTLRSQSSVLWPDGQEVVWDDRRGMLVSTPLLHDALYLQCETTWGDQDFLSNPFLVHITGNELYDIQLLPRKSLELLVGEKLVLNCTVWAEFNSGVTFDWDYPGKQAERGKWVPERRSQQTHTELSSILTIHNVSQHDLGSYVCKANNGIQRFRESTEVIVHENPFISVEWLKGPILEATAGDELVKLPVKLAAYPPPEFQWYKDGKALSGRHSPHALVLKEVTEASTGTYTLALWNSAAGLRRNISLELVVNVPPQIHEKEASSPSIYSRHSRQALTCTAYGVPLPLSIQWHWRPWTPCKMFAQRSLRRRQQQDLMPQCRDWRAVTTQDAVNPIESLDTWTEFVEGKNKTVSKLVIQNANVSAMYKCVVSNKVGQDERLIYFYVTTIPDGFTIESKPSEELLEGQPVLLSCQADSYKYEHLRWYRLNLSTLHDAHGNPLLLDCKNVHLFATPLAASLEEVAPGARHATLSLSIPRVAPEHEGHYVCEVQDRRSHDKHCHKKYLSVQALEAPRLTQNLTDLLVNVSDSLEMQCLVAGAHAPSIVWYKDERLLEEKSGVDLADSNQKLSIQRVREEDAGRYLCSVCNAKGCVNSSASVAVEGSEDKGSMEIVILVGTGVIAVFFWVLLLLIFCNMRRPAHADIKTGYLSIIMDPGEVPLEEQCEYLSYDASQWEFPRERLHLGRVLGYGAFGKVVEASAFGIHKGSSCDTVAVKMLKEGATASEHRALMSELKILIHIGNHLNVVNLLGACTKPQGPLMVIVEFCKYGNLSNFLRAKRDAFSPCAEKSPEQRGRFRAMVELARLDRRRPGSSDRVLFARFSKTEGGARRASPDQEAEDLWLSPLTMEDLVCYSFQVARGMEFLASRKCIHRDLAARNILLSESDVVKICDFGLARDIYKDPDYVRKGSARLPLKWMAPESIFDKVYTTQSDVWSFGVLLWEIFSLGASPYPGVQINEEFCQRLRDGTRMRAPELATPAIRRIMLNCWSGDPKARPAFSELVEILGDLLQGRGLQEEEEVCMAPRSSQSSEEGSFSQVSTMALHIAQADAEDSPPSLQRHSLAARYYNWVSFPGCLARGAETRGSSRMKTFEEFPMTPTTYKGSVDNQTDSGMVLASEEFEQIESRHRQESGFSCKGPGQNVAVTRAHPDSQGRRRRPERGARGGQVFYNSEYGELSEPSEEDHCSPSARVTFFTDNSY

[6] = biological target: T4, PrKX(h) (Homo sapiens, UniProt P51817)
T4 sequence (P51817 1-358): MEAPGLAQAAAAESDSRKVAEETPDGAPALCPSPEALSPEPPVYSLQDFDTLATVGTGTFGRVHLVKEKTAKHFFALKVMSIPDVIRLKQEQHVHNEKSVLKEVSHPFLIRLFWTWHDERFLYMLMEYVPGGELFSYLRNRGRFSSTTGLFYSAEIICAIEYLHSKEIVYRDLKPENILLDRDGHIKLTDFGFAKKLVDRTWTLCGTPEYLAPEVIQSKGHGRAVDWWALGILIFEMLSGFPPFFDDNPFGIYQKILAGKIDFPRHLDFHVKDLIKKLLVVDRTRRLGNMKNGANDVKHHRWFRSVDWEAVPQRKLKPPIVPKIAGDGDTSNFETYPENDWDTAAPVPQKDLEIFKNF

Chain of ALK(h) (Q9UM73 19-1620): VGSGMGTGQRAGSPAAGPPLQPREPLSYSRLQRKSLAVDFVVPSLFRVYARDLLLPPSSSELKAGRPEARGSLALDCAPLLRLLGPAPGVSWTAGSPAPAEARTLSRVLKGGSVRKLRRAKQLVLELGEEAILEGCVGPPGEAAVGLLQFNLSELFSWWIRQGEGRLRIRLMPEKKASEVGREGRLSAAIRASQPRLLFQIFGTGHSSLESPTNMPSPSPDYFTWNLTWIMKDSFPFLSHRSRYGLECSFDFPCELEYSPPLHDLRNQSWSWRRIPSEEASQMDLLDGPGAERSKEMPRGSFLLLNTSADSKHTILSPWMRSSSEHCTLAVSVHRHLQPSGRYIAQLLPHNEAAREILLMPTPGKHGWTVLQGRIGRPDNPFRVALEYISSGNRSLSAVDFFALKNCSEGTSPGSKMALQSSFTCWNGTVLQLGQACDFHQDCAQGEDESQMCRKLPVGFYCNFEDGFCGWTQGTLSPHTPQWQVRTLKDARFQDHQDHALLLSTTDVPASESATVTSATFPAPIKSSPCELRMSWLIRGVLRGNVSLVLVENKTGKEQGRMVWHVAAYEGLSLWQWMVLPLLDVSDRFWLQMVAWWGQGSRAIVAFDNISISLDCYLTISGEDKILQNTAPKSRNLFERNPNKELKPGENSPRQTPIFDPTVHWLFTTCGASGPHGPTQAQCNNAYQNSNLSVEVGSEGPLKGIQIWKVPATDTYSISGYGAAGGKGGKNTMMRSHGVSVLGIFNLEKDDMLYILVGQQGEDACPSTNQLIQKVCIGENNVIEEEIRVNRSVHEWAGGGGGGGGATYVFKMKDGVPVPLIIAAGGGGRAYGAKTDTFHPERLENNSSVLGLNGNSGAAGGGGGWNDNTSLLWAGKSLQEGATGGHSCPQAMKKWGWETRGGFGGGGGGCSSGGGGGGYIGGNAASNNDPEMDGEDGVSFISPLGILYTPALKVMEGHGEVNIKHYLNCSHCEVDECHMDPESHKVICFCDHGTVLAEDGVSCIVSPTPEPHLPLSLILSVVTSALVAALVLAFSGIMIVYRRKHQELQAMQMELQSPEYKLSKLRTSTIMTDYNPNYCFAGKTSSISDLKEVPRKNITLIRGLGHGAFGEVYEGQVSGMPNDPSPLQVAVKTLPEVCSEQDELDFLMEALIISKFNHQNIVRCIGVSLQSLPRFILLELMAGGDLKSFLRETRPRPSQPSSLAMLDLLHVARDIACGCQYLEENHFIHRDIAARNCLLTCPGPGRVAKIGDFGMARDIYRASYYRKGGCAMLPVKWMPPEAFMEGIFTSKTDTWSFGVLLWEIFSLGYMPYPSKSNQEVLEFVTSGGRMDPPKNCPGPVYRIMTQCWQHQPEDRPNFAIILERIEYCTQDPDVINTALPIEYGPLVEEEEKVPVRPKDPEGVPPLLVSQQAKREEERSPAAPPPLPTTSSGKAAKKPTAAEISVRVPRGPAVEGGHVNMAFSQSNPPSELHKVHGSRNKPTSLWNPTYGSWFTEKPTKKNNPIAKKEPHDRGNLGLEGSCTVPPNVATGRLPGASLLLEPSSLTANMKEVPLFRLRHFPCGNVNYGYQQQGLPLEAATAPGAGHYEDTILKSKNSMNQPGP

SMILES: CC(C)CCC(=O)[C@]1(O)C(O)=C(C(=O)C(C)C)C(=O)[C@H]1CCC(C)C [TH2, tetrahydroiso-cohumulone]
- kinase inhibition ([1]; 1 μg/ml): 80% of control
- kinase inhibition ([1]; 5 μg/ml): 59% of control
- kinase inhibition ([1]; 25 μg/ml): 21% of control
- kinase inhibition ([1]; 50 μg/ml): 21% of control
- kinase inhibition ([1]; 100 μg/ml): 23% of control
- kinase inhibition ([2]; 1 μg/ml): 88% of control
- kinase inhibition ([2]; 5 μg/ml): 90% of control
- kinase inhibition ([2]; 25 μg/ml): 89% of control
- kinase inhibition ([2]; 50 μg/ml): 79% of control
- kinase inhibition ([2]; 100 μg/ml): 61% of control
- kinase inhibition ([3]; 1 μg/ml): 103% of control
- kinase inhibition ([3]; 5 μg/ml): 106% of control
- kinase inhibition ([3]; 25 μg/ml): 107% of control
- kinase inhibition ([3]; 50 μg/ml): 93% of control
- kinase inhibition ([3]; 100 μg/ml): 79% of control
- kinase inhibition ([4]; 1 μg/ml): 107% of control
- kinase inhibition ([4]; 5 μg/ml): 99% of control
- kinase inhibition ([4]; 25 μg/ml): 109% of control
- kinase inhibition ([4]; 50 μg/ml): 95% of control
- kinase inhibition ([4]; 100 μg/ml): 84% of control
- kinase inhibition ([5]; 1 μg/ml): 117% of control
- kinase inhibition ([5]; 5 μg/ml): 113% of control
- kinase inhibition ([5]; 25 μg/ml): 88% of control
- kinase inhibition ([5]; 50 μg/ml): 80% of control
- kinase inhibition ([5]; 100 μg/ml): 55% of control
- kinase inhibition ([6]; 1 μg/ml): 101% of control
- kinase inhibition ([6]; 5 μg/ml): 103% of control
- kinase inhibition ([6]; 25 μg/ml): 98% of control
- kinase inhibition ([6]; 50 μg/ml): 88% of control
- kinase inhibition ([6]; 100 μg/ml): 66% of control
